The results in this text go back to ChEMBL document CHEMBL1128235, “Inhibitors of HIV-1 protease containing the novel and potent (R)-(hydroxyethyl)sulfonamide isostere” (J Med Chem, 1995).

The target in series [1] is T1, Human immunodeficiency virus type 1 protease (Human immunodeficiency virus 1, UniProt Q72874). The experiment in a line: Binding affinity for HIV-1 protease was determined in vitro.
The subject of series [2] is CCRF-CEM. The experiment in a line: Antiviral activity against HIVIIIB strain of HIV-1 was determined in an CEM based assay. The series is classed as functional, cell-based. The following applies: Homo sapiens.
The target in series [3] is T1, Human immunodeficiency virus type 1 protease. Nature of the series: Binding affinity for HIV-1 protease was determined.
Series [4] has the same target. Nature of the series: Ability to inhibit HIV-1 protease was determined using spectrofluorimetric assay.
Series [5] shares this target. Nature of the series: Ability to inhibit HIV-1 protease was determined using spectrofluorimetric assay.
The target is the same in series [6]. The experiment in a line: Binding affinity for HIV-1 protease was determined.
Series [7] is described as follows: Toxicity in CEM cells infected with HIVIIIB strain of HIV-1. Format: cell-based. The following applies: human, CEM (CCRF-CEM) cells infected with HIV-1 strain IIIB; read-out: TD50 (the source's name).
For series [8], the target named is T1, Human immunodeficiency virus type 1 protease. Nature of the series: Binding affinity for HIV-1 protease was determined in vitro.
Series [9] has as its system CCRF-CEM. The experiment in a line: Antiviral activity against HIVIIIB strain of HIV-1 was determined in an CEM based assay. The following applies: Homo sapiens. The series is classed as functional, cell-based.

The Ki is a measure of affinity in units of concentration, obtained from inhibition or displacement. A word on the EC50: it is the concentration needed to bring the measured effect to its halfway point. In [1], `CC(C)CN(C[C@@H](O)[C@H](Cc1ccccc1)NC(=O)OCc1ccccc1)S(=O)(=O)c1ccccc1` returned a Ki of 3.2 nM. In the series with CCRF-CEM [2], this compound had an EC50 of 113 nM.
By IC50 is commonly meant the concentration that gives 50% inhibition. High values mean lower potency, low ones higher potency. With `O=C(N[C@@H](Cc1ccccc1)[C@H](O)CN(Cc1ccccc1)S(=O)(=O)c1ccccc1)OCc1ccccc1`, the inhibition constant Ki in series [3] was 125 nM. The compound also returned a half-inhibitory concentration (IC50) in [4] of 190 nM.
In series [3], `CC(C)CCN(C[C@@H](O)[C@H](Cc1ccccc1)NC(=O)[C@H](CC(N)=O)NC(=O)OCc1ccccc1)S(C)(=O)=O` showed an inhibitory constant (Ki) of 57 nM. In [4], this compound came in with an IC50 of 100 nM.
For the compound `CC(C)CCN(C[C@@H](O)[C@H](Cc1ccccc1)NC(=O)OCc1ccccc1)S(=O)(=O)c1ccccc1Cl`, it took 380 nM to reach half-maximal inhibition in series [5] (IC50). The compound also displayed an inhibition constant Ki in series [6] of 227 nM.
With `CC(C)CCN(C[C@H](O)[C@H](Cc1ccccc1)NC(=O)OCc1ccccc1)S(=O)(=O)c1ccccc1`, the midpoint of inhibition in [5], the IC50, lay at 450 nM. In addition, the affinity in series [6] corresponds to a Ki of 295 nM.
Turning to `CC(C)CCN(C[C@@H](O)[C@H](Cc1ccccc1)NC(=O)OCc1ccccc1)S(C)(=O)=O`, the affinity in series [3], expressed as Ki, was 1870 nM. In series [4], this compound had a 50% inhibitory concentration (IC50) of 3200 nM.
Regarding `CC(C)CCN(C[C@@H](O)[C@H](Cc1ccccc1)NC(=O)[C@H](CC(N)=O)NC(=O)c1ccc2ccccc2n1)S(C)(=O)=O`, in series [7], the CC50 is 45000 nM. This compound yielded an inhibitory constant (Ki) in [1] of 13 nM. For the same compound, the EC50 with CCRF-CEM [2] worked out at 53 nM.
For the compound `CCCS(=O)(=O)N(CCC(C)C)C[C@@H](O)[C@H](Cc1ccccc1)NC(=O)OCc1ccccc1`, the 50% inhibitory concentration (IC50) in series [5] was 210 nM. The inhibition constant Ki in series [6] stood at 128 nM.
In the case of `CC(C)CCN(C[C@@H](O)[C@H](Cc1ccccc1)NC(=O)OCc1ccccc1)S(=O)(=O)Cc1ccccc1`, the IC50 in [5] was 10000 nM.
The compound `CC(C)CCN(C[C@@H](O)[C@H](Cc1ccccc1)NC(=O)OCc1ccccc1)S(=O)(=O)c1cccc(Cl)c1` gave a 50% inhibitory concentration (IC50) in series [5] of 92 nM. This compound also registered an inhibition constant (Ki) in [6] of 61 nM.
In series [8], `CC(C)CCN(C[C@@H](O)[C@H](Cc1ccccc1)NC(=O)OCc1ccccc1)S(=O)(=O)c1ccccc1` registered a Ki of 10 nM. Moreover, in the series on CCRF-CEM [9], the midpoint of the response, the EC50, lay at 55 nM. The CC50 in series [7] is 26000 nM.
With `CC(C)CCN(C[C@@H](O)[C@H](Cc1ccccc1)NC(=O)OCc1ccccc1)S(=O)(=O)c1ccc(Cl)cc1`, the IC50 in series [5] turned out to be 10 nM. For the same compound, affinity in series [6] was put at a Ki of 4.1 nM.
In series [3], `O=C(N[C@@H](Cc1ccccc1)[C@H](O)CN(CC1CCCCC1)S(=O)(=O)c1ccccc1)OCc1ccccc1` returned an inhibitory constant (Ki) of 6.7 nM. Further, 14 nM corresponded to half-maximal inhibition in series [4] (IC50).
On to `CC(C)CCN(C[C@@H](O)[C@H](Cc1ccccc1)NC(=O)[C@H](CC(N)=O)NC(=O)c1ccc2ccccc2n1)S(=O)(=O)c1ccccc1`, for which, in series [7], the CC50 worked out at 203000 nM. The same compound yielded a 50% effective concentration (EC50) with CCRF-CEM [2] of 5 nM.
As for `CC(C)CCN(C[C@@H](O)[C@H](Cc1ccccc1)NC(=O)[C@H](CC(N)=O)NC(=O)OCc1ccccn1)S(=O)(=O)c1ccccc1`, the Ki in series [3] worked out at 0.5 nM. The same compound registered an IC50 in series [4] of 2.2 nM.
